US9340577B2, “HLA binding motifs and peptides and their uses” (priority 1992, dated 2016)
Read-outs that look alike come from different tables or passages of the source. No end group written: not given here.

Legend:
Assay in all cases: biochemical
[1] = target: DRB3*0101 (Homo sapiens, UniProt P01903+P79483); assay type: binding
[2] = target: DRB1*0301 (Homo sapiens, UniProt P01903+P01911, A100K/A102G/A103R/A169T/F55Y/I96L/K41T/L162R/M171V/P40S/Q125H/Q178H/Q39Y/R42S/S66N/T106N/T262R/W38E/Y61H); assay type: binding
[3] = target: DRB5*0101 (Homo sapiens, UniProt P01903+Q30154)
[4] = target: DR7 (DRB1*0701) (Homo sapiens, UniProt P01903+P01911, A100R/A102G/A103Q/D57E/D86V/E43K/F76Y/K127E/L162R/M171V/P40G/Q125H/Q99D/R33Q/R42Y/R54Q/S133A/S66F/T210M/V115G/Y107V/Y59L/Y89S); assay type: binding
[5] = target: DRB1*1101 (Homo sapiens, UniProt P01903+P01911, A100R/A169T/A87E/I96F/K41T/L162R/M171V/P40S/Q125H/Q178H/Q39Y/Q99D/R42S/S66Y/T262R/V115G/W38E)
[6] = target: DRB1*0802 (Homo sapiens, UniProt P01903+P01911, A100R/A103L/A169T/F76Y/H45Y/I96F/K41T/L162R/M171V/P40S/Q125H/Q178H/Q39Y/Q99D/R218S/R42G/S66Y/V115G/W38E); assay type: binding
[7] = target: DRB1*1302 (Homo sapiens, UniProt P01903+P01911, A100E/A169T/K41T/L162R/M171V/P40S/Q125H/Q178H/Q39Y/Q99D/R42S/S66N/T262R/V115G/W38E/Y61H); assay type: binding
[8] = target: DRB1*0901 (Homo sapiens, UniProt P01903+P01911, A100R/A103E/D57H/D86V/F55Y/F60I/F76Y/I96F/K127E/L162R/M171V/P40D/Q125H/Q99R/R33Q/R42F/S133A/S66N/T210M/V115G/W38K/Y107V/Y59G/Y89S); assay type: binding
[9] = target: DR1 (DRB1*0101) (Homo sapiens, UniProt P01903+P01911, A100R/D57E/F55L/F60I/F76Y/I96L/L162R/M171V/P40L/Q125E/R42F/V115G/Y59C); assay type: binding
[10] = target: DRB4*0101 (Homo sapiens, UniProt P01903+P13762, G164S); assay type: binding
[11] = target: DR4w4 (DRB1*0401) (Homo sapiens, UniProt P01903+P01911, A100K/A169T/F76Y/I96L/K127E/L162R/M171V/N62H/P40V/Q125Y/R42H/S133A/S149N/S66Y/V115G/V209L/W38E); assay type: binding
[12] = target: DRB1*1501 (Homo sapiens, UniProt P01903+P01911); assay type: binding
[13] = target: DRB1*1201 (Homo sapiens, UniProt P01903+P01911, A100R/A169T/D57E/D86V/F55L/H45Y/K41T/L162R/M171V/P40S/Q125H/Q178H/Q39Y/Q99D/R42G/S66L/T262R/V114A/V67L/W38E/Y59H/Y61H/Y89S); assay type: binding
[14] = target: DRB1*0405 (Homo sapiens, UniProt P01903+P01911, A100R/A169T/D86S/F76Y/I96L/K127E/L162R/M171V/N62H/P40V/Q125Y/R42H/S133A/S149N/S66Y/V115G/V209L/W38E); assay type: binding

Sequence of DRB1*0301 (P01903 26-254 limits assumed, other chains not shown): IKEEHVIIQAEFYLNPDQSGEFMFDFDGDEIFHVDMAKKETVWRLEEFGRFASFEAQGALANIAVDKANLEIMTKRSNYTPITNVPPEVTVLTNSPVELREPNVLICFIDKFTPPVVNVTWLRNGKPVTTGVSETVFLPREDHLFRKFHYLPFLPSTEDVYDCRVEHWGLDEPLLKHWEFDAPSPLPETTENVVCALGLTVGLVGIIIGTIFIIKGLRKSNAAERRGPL
Sequence of DRB1*1302 (P01903 26-254 limits assumed, other chains not shown): as above
Sequence of DRB1*1101 (P01903 26-254 limits assumed, other chains not shown): as above

Compound	IC50 [1] [µM]	IC50 [2] [µM]	IC50 ([3]; Binding affinity DRB5 *0101) [µM]	IC50 [4] [µM]	IC50 ([5]; Binding affinity DRB1 *1101) [µM]	IC50 [6] [µM]	IC50 [7] [µM]	IC50 [8] [µM]	IC50 [9] [µM]	IC50 [10] [µM]	IC50 [11] [µM]	IC50 [12] [µM]	IC50 [5] [µM]	IC50 [3] [µM]	IC50 [13] [µM]	IC50 [14] [µM]	IC50 ([5]; […]) [µM]
CC[C@H](C)[C@H](N)C(=O)N[C@@H](CC(C)C)C(=O)N[C@@H](CC(C)C)C(=O)N[C@@H](Cc1c[nH]c2ccccc12)C(=O)N[C@@H](CCC(N)=O)C(=O)N1CCC[C@H]1C(=O)N[C@H](C(=O)N1CCC[C@H]1C(=O)N[C@H](C(=O)N[C@@H](Cc1c[nH]cn1)C(=O)N[C@H](C(=O)N[C@H](C(=O)N1CCC[C@H]1C(=O)N[C@@H](CC(C)C)C(=O)N[C@@H](CO)C(=O)O)C(C)C)[C@@H](C)O)C(C)C)[C@@H](C)CC [Peptide 68.0038]	> 20	> 20	> 20														
CC[C@H](C)[C@H](NC(=O)CNC(=O)[C@H](Cc1ccc(O)cc1)NC(=O)[C@H](CC(C)C)NC(=O)[C@H](CO)NC(=O)[C@H](CC(C)C)NC(=O)[C@H](CC(C)C)NC(=O)[C@H](CO)NC(=O)[C@H](CC(C)C)NC(=O)[C@H](CCC(=O)O)NC(=O)[C@H](CO)NC(=O)[C@@H](N)CC(C)C)C(=O)N[C@@H](Cc1c[nH]cn1)C(=O)N[C@@H](CCCCN)C(=O)N[C@@H](CCC(N)=O)C(=O)O [Peptide 68.0044]	> 20	> 20		> 20													
CSCC[C@H](NC(=O)CNC(=O)CNC(=O)[C@H](CCCNC(=N)N)NC(=O)[C@@H](NC(=O)[C@H](CCC(N)=O)NC(=O)[C@H](C)NC(=O)[C@@H](NC(=O)[C@@H](NC(=O)[C@H](CC(C)C)NC(=O)[C@H](Cc1c[nH]cn1)NC(=O)[C@H](Cc1ccc(O)cc1)NC(=O)[C@@H](N)CCCCN)[C@@H](C)O)C(C)C)C(C)C)C(=O)N[C@H](C(=O)N[C@@H](Cc1ccccc1)C(=O)O)C(C)C [Peptide 68.0120]	> 20	> 20															
CC[C@H](C)[C@H](NC(=O)[C@@H](N)CCCCN)C(=O)N[C@@H](Cc1ccccc1)C(=O)NCC(=O)N[C@@H](CO)C(=O)N[C@@H](CC(C)C)C(=O)N[C@@H](C)C(=O)N[C@@H](Cc1ccccc1)C(=O)N[C@@H](CC(C)C)C(=O)N1CCC[C@H]1C(=O)N[C@@H](CCC(=O)O)C(=O)N[C@@H](CO)C(=O)N[C@@H](Cc1ccccc1)C(=O)N[C@@H](CC(=O)O)C(=O)NCC(=O)N[C@@H](CC(=O)O)C(=O)N1CCC[C@H]1C(=O)N[C@@H](C)C(=O)O [Peptide 1533.07]	> 20	> 20			> 20	> 20											
CSCC[C@H](NC(=O)[C@H](CS)NC(=O)[C@H](CC(N)=O)NC(=O)[C@H](CC(=O)O)NC(=O)[C@H](CCCCN)NC(=O)[C@H](CC(N)=O)NC(=O)CN)C(=O)N[C@H](C(=O)N[C@@H](Cc1ccc(O)cc1)C(=O)N[C@H](C(=O)N[C@@H](C)C(=O)N[C@@H](Cc1c[nH]c2ccccc12)C(=O)N[C@@H](CC(=O)O)C(=O)N[C@@H](CO)C(=O)N[C@H](C(=O)O)C(C)C)C(C)C)[C@@H](C)O [Peptide 1601.09]	> 20	8.83	> 20	4.39	> 20	11.5	> 20	> 20	2.23	0.041	2.26	0.461					
CC[C@H](C)[C@H](NC(=O)[C@@H](NC(=O)[C@@H]1CCCN1C(=O)[C@@H](NC(=O)[C@@H](NC(=O)[C@H](CC(N)=O)NC(=O)CNC(=O)[C@H](CO)NC(=O)[C@H](CS)NC(=O)[C@H](CC(C)C)NC(=O)[C@H](CCCCN)NC(=O)[C@H](CCCNC(=N)N)NC(=O)[C@H](CCCNC(=N)N)NC(=O)[C@@H](N)CCCCN)[C@@H](C)O)[C@@H](C)O)[C@@H](C)CC)C(=O)N[C@@H](Cc1c[nH]cn1)C(=O)O [Peptide 1601.16]	> 20	5.94	4.98		> 20	4.74	0.0076	0.061		> 20	0.311	9.33					
CC[C@H](C)[C@H](NC(=O)[C@H](C)NC(=O)[C@@H](NC(=O)[C@@H](NC(=O)[C@H](CC(N)=O)NC(=O)[C@H](CC(C)C)NC(=O)[C@H](Cc1ccccc1)NC(=O)[C@H](CCCCN)NC(=O)[C@@H](NC(=O)[C@H](CCCNC(=N)N)NC(=O)[C@H](CCC(N)=O)NC(=O)[C@H](CCCCN)NC(=O)[C@@H](N)CCC(=O)O)[C@@H](C)O)[C@@H](C)O)C(C)C)C(=O)N1CCC[C@H]1C(=O)N[C@@H](CC(=O)O)C(=O)O [Peptide 1601.19]	> 20	11.8		0.123		> 20		0.284	0.061	6.45	4.5	> 20	> 20	> 20			
AATYNFAVLKLMGRGTKF [Peptide F025.08]	> 20	> 20															
EYILDLHPEPTDLFC [Peptide 1543.51]	0.083		> 20	> 20	19.5	16.3	4.75	> 20	0.189	0.0082		> 20			2.6	1.14	
GRVNTHVHNPLLCSS [Peptide 1601.34]	> 20	9.95	> 20	6.02	> 20	2.69	0.865	3.35	0.873	5.98	> 20						
QIQVFETLEET [Peptide 1385.01]	> 20	> 20					> 20		> 20	> 20	> 20						
QKGRGYRGQHQAHSLERVCH [Peptide F025.05]	> 20	> 20										> 20					> 20
RNTFLDVVTIPNSVQ [Peptide 1601.39]	12	6.86	> 20	0.27	0.371	0.776		5.87	0.555			17				0.326	
SADDLRAFQQLFLNT [Peptide 1543.07]	> 20		> 20	0.124	3.59	7	3.13	0.559	0.295	0.27					0.305	0.411	
STWHWTGCNKNTGIL [Peptide 1601.38]	> 20	> 20	16.5		0.662	11.7	0.487	> 20	> 20	> 20	> 20	> 20					
VHEGIRTYFVQFKDD [Peptide 1601.05]	9.92	9.33	> 20	5.73	> 20	12.2		5.86	9.28	1.8		0.038					
VVTIPNSVQISVGYM [Peptide 1601.41]	> 20	> 20	> 20	0.071	4.22						0.835	3.44					
